How the values were obtained:
HDL levels = experiment: Population studies (Aging, FHS, collective sample), maximum likelihood models of HDL versus vitamin D intake and genotype; assay type: in vivo, human; details: for increase of HDL: vitamin D deficient subjects, retrospective studies
Description: (§1) Study populations. Factors associated with cardiovascular disease were analyzed using samples from an Aging study population from Utah (“Aging” or “Utah” sample), which included approximately 2500 subjects in 98 Utah pedigrees with 2 or more probands such as, e.g., early stroke, coronary heart disease death, or hypertension. Details regarding subject selection have been previously published. See Williams et al., Recruitment of members of high-risk Utah pedigrees. Control Clin Trials 8: 105S-114S (1987); see also Table 2 below. Additional follow-up assessments were performed, where a validated dietary survey was administered, lipid profiles were determined, DNA was obtained, and standard cardiovascular risk factors were measured. See Hunt et al., Predictors of an increased risk of future hypertension in Utah. A screening analysis. Hypertension 17: 969-976 (1991). In some of the following examples results are described for subjects selected from the foregoing population, wherein samples were excluded if they lacked data relating to complete lipid profiles, genetic polymorphism data, or dietary survey data (n=1060 subjects in 96 families for HDL analysis, and n=1057 subjects in 70 families for triglyceride analysis).
(§2) A replication cohort, moreover, consisted of 5243 caucasian subjects from the NHLBI Family Heart Study (“FamHS” or “FHS” sample), which were not previously administered cholesterol modifying medications. Data for these subjects included lipid profiles and genetic analyses, as described. See Heard-Costa et al., NRXN3 is a novel locus for waist circumference: a genome-wide association study from the CHARGE Consortium. PLoS Genet 5: e1000539 (2009). These population-based families were gathered as part of four studies: the Framingham Heart Study, the Utah Family Tree Study, and ARIC centers in Minneapolis and Forsyth County, N.C. (n=2890 individuals in 504 families; see Table 2 for sample characteristics).
(§3) Both the Aging and FamHS samples were subdivided by season (see Table 2) when measuring both diet and lipids levels. Winter subsamples included data analyzed from November to March and consisted of 362 Aging subjects and 1006 FamHS subjects as shown below in Table 2. Because HDL and triglyceride levels are inversely correlated, vitamin D-triglyceride interactions were also measured from the foregoing samples, as further described below.
(§4) Dietary questionnaire and winter subsamples. Vitamin D intake was measured both in the Aging and FHS samples via a staff-administered semi-quantitative food frequency questionnaire with reproducibility and validity. See, e.g., Willett et al., Reproducibility and validity of a semiquantitative food frequency questionnaire. Am J Epidemiol 122: 51-65 (1985). […] See Jacques et al., Comparison of micronutrient intake measured by a dietary questionnaire and biochemical indicators of micronutrient status. Am J Clin Nutr 57: 182-189 (1993).
(§5) Accordingly, the Aging and FHS studies were subdivided into seasonal and lipid measurement cohorts, both of which occurred at the same clinic visit for the subject.
(§6) Study design and analysis for the aging and FHS samples. jPAP software (see Hasstedt et al., jPAP: Document-driven software for genetic analysis. Genet Epidemiol 29 (2005)), was employed for maximum likelihood analysis, correction of potential covariates, and to estimate heritability attributable to gene-environment interaction factors (interaction) measured as changes in estimated polygenic variance. Natural log transformed HDL was employed as the dependent variable, and all maximum likelihood models included age, sex, and log transformed BMI as baseline covariates. […] Analyses were performed separately for the entire Aging sample and the Aging winter subsample. The results were confirmed using the FHS sample population. […]

triglyceride levels = experiment: Population studies (collective sample), maximum likelihood models of triglycerides versus vitamin D intake and genotype; assay type: in vivo, human
Description: as §1, §2, §3, §4, §5, §6

[1] = wintertime vitamin D intake raised from 50 IU to 550 IU, heterozygous G/C at rs3135506, model estimate
[2] = wintertime vitamin D intake raised from 50 IU to 550 IU, homozygous C/C at rs3135506, model estimate

## C=C1/C(=C\C=C2/CCC[C@]3(C)[C@@H]([C@H](C)CCCC(C)(C)O)CC[C@@H]23)C[C@@H](O)C[C@@H]1O [vitamin D, 1,25-dihydroxyvitamin D3]
HDL levels; FHS study population, entire sample
  association of vitamin D alone with HDL levels: not associated with an increase in patient HDL levels
HDL levels; heterozygous for a vitamin D sensitive allele
  increase of HDL: 5%
HDL levels; homozygous for a vitamin D sensitive allele
  increase of HDL: 10%
HDL levels; [1]
  increase of HDL cholesterol: approximately 10 mg/dL
HDL levels; [2]
  increase of HDL cholesterol: approximately 20 mg/dL
HDL levels; wintertime vitamin D intake raised from 50 IU to 550 IU, homozygous G/G at rs3135506, model estimate
  decrease of HDL cholesterol: approximately 0.5 mg/dL
Triglyceride levels; collective sample, entire, patients with rs3135506 polymorphism, p=0.33
  effect of vitamin D on triglyceride levels: did not have a significant effect
Triglyceride levels; vitamin D deficient subjects, heterozygous for a vitamin D sensitive allele, retrospective studies
  decrease of triglyceride levels: 5%
Triglyceride levels; vitamin D deficient subjects, homozygous for a vitamin D sensitive allele, retrospective studies
  decrease of triglyceride levels: 10%
Triglyceride levels; [1]
  decrease of triglyceride levels: 50 mg/dL
Triglyceride levels; [2]
  decrease of triglyceride levels: 125 mg/dL
Triglyceride levels; wintertime vitamin D intake raised from 50 IU to 550 IU, homozygous G/G at rs3135506 (wild-type), model estimate
  increase of triglycerides: 2 mg/dL
